Legend:
Zeta potential = type: physicochemical; conditions: nanoplexes at selected ratios: H3K(+H)4b:siRNA 2.2:1; (RGD-PEG)-H3K(+H)4b/H2K4b/siRNA 3:0.8:1; (RGD-PEG)^4-H3K(+H)4b/H2K4b/siRNA 4:0.8:1
MDA-MB-435 cells = assay: Cellular uptake of Cy3 labeled-siRNA nanoplexes, confocal microscopy; type: cell-based, human; conditions: cells incubated 4 h with nanoplexes
[1] = Particle size by dynamic light scattering; type: physicochemical; conditions: DLS; H3K(+H)4b:siRNA 2.2:1 (w/w)
siRNA = assay: Gel retardation assay of HK:siRNA nanoplexes; type: binding; conditions: H2K4b:siRNA ratio 0.8 to 1 (w:w); data not shown
[2] = H2K4b alone; ref [18]; cited from earlier work

| Sequence | zeta potential (Zeta potential) | intracellular fluorescence pattern of Cy3 labeled-siRNA (MDA-MB-435 cells) | size of the siRNA nanoplex [1] | siRNA retained in gel retardation assay (siRNA) | effectiveness as carrier of siRNA in silencing its targets [2] |
| --- | --- | --- | --- | --- | --- |
| KHHHKHHHKHHHHKHHHK [H3K(+H)4b] | 37 mV | discrete intracellular particles | 149 ± 41 nm | – | – |
| KHKHHKHHKHHKHHKHHKHK [H2K4b] | – | – | – | 35% | not an effective carrier |
